In patent US12559474B2, “Triazine derivatives having virus replication inhibitory activity and pharmaceutical composition comprising the same” (priority 2021, dated 2026):
Where two headings read alike, the source gives them in different places.

Tests used:
SARS-CoV-2 = test: microbe, parasite or virus in culture; assay type: cell-based; conditions: Severe acute respiratory syndrome coronavirus 2, VeroE6/TMPRSS2, 72 h, 50% SARS-CoV-2 infected cell death inhibitory concentration, VeroE6/TMPRSS2 cells, 3 days culture
SARS-CoV-2 3CL protease = SARS-CoV-2 3CL protease (Severe acute respiratory syndrome coronavirus 2, UniProt P0DTD1); test: biochemical; conditions: 50% SARS-CoV-2 3CL protease inhibitory concentration, read-out: IC50

Row | SMILES | EC50 (SARS-CoV-2; class symbols) [nM] | IC50 (SARS-CoV-2 3CL protease; given as class symbols) [nM] | IC50 (SARS-CoV-2 3CL protease; RapidFire MS) [nM] | EC50 (SARS-CoV-2; CellTiter-Glo 2.0) [nM]
1 | Cn1cnc(Cn2c(=O)nc(Nc3cc4cn(CC5CCCO5)nc4cc3Cl)n(Cc3cc(Cl)c(F)cc3F)c2=O)n1 (racemic) [II-0409] | 1000 to 10000 | < 100 | – | –
2 | Cc1ccc(Cl)cc1Cn1c(Nc2cc3cn(C)nc3cc2Cl)nc(=O)n(Cc2ncn(C)n2)c1=O [II-0052] | 1000 to 10000 | < 100 | – | –
3 | Cc1cncc(-n2c(=O)nc(Nc3cc4cn(C)nc4cc3Cl)n(Cc3cccc(F)c3C)c2=O)c1 [II-0171] | < 1000 | < 100 | – | –
4 | Cc1cncc(-n2c(=O)nc(Nc3cc4cn(CCO)nc4cc3Cl)n(Cc3cc(F)c(F)cc3F)c2=O)c1 [II-0337] | < 1000 | < 100 | – | –
5 | Cn1cc2cc(Nc3nc(=O)n(Cc4ccc[nH]c4=O)c(=O)n3Cc3cc(F)c(F)cc3F)c(Cl)cc2n1 [Compound I-0009] | < 1000 | < 100 | – | –
6 | CC(=O)Nc1nc2cc(F)c(Nc3nc(=O)n(-c4cncc(C)c4)c(=O)n3Cc3ccc(F)c(C#N)c3)cc2s1 [II-0011] | 1000 to 10000 | < 100 | – | –
7 | Cc1cncc(-n2c(=O)nc(Nc3cc4cn(C)nc4cc3Cl)n(Cc3ccc(F)c(C#N)n3)c2=O)c1 [II-0539] | 1000 to 10000 | < 100 | – | –
8 | Cc1cncc(-n2c(=O)nc(Nc3cnc(OCC(F)F)cc3C)n(Cc3ccc(F)c(C#N)c3)c2=O)c1 [II-0123] | 1000 to 10000 | < 100 | – | –
9 | Cc1cncc(-n2c(=O)nc(Nc3cc4sc(C)nc4cc3F)n(Cc3ccc(F)c(C#N)c3)c2=O)c1 [II-0416] | 1000 to 10000 | < 100 | – | –
10 | Cn1cnc(Cn2c(=O)nc(Nc3cc4cn(CC(C)(C)O)nc4cc3Cl)n(Cc3cc(F)c(F)c(Cl)c3)c2=O)n1 [II-0305] | 1000 to 10000 | < 100 | – | –
11 | Cc1cncc(-n2c(=O)nc(Nc3cc4oc(C)nc4cc3Cl)n(Cc3ccc(F)c(C#N)c3)c2=O)c1 [II-0108] | 1000 to 10000 | < 100 | – | –
12 | COc1ccc(Oc2nc(=O)n(Cc3ccc[nH]c3=O)c(=O)n2Cc2cc(F)c(F)c(F)c2)c(C)c1 [Compound I-0128] | < 1000 | – | 9700 | –
13 | Cc1cncc(-n2c(=O)nc(Nc3cc4cn(C)nc4cc3Cl)n(Cc3ccc(F)cc3F)c2=O)c1 [II-0185] | < 1000 | < 100 | – | –
14 | Cn1cnc(Cn2c(=O)nc(Nc3cc4cn(CC5CC5)nc4cc3Cl)n(Cc3cc(Cl)c(F)cn3)c2=O)n1 [II-0269] | 1000 to 10000 | < 100 | – | –
15 | Cc1cncc(-n2c(=O)nc(Nc3ccc4nc(C)sc4c3)n(Cc3ccc(F)c(C#N)c3)c2=O)c1 [II-0197] | < 1000 | < 100 | – | –
16 | Cn1cc2cc(Nc3nc(=O)n(-c4cncc(Cl)c4)c(=O)n3Cc3cc(F)c(F)cc3F)c(F)cc2n1 [II-0475] | 1000 to 10000 | < 100 | – | –
17 | O=c1nc(Nc2cc3cn(CCO)nc3cc2Cl)n(Cc2cc(F)c(F)cc2F)c(=O)n1Cc1ccccn1 [II-0249] | 1000 to 10000 | < 100 | – | –
18 | COc1ccc(Nc2nc(=O)n(Cc3ccc[nH]c3=O)c(=O)n2Cc2cc(Cl)ccc2F)cc1 [Compound I-0231] | 1000 to 10000 | < 100 | – | –
19 | CNc1nc2cc(Cl)c(Nc3nc(=O)n(Cc4ncccn4)c(=O)n3Cc3cc(F)c(F)c(Cl)c3)cc2s1 [II-0297] | 1000 to 10000 | < 100 | – | –
20 | Cn1cnc(Cn2c(=O)cc(Nc3cc4cn(C)nc4cc3Cl)n(Cc3cc(F)c(F)c(F)c3)c2=O)n1 [II-0430] | 1000 to 10000 | < 100 | – | –
21 | Cc1cncc(-n2c(=O)nc(Nc3cc4cn(CC(F)F)nc4cc3Cl)n(Cc3cc(C#N)ccc3C)c2=O)c1 [II-0577] | – | – | 1.1 | 85
22 | Cc1nc2cc(Nc3nc(=O)n(Cc4ccc[nH]c4=O)c(=O)n3Cc3cc(F)c(F)c(F)c3)c(Cl)cc2o1 [Compound I-0461] | 1000 to 10000 | < 100 | – | –
23 | CC(=O)Nc1nc2ccc(Nc3nc(=O)n(-c4cncc(C)c4)c(=O)n3Cc3ccc(F)c(C#N)c3)cc2s1 [II-0316] | 1000 to 10000 | < 100 | – | –
24 | Cc1nc2cc(Cl)c(Nc3nc(=O)n(Cc4ccc[nH]c4=O)c(=O)n3Cc3ccc(F)c(Cl)c3)cc2n1C [Compound I-0007] | 1000 to 10000 | < 100 | – | –
25 | Cn1cc2cc(Nc3nc(=O)n(-c4cncc5ccccc45)c(=O)n3Cc3cc(F)c(F)c(F)c3)ccc2n1 [Compound I-0380] | < 1000 | < 100 | – | –
26 | CN(C)C(=O)c1ccc(Cn2c(=O)nc(Nc3cc4cn(CC(F)F)nc4cc3Cl)n(Cc3cc(F)c(F)c(F)c3)c2=O)c(=O)[nH]1 [Compound I-0066] | 1000 to 10000 | < 100 | – | –
27 | Cc1cncc(-n2c(=O)nc(Nc3cc4cn(C)nc4cc3Cl)n(Cc3cccc(F)c3Cl)c2=O)c1 [II-0188] | < 1000 | < 100 | – | –
28 | CC(C)Nc1nc2cc(Cl)c(Nc3nc(=O)n(Cc4ccc[nH]c4=O)c(=O)n3Cc3cc(F)c(F)c(F)c3)cc2s1 [II-0413] | 1000 to 10000 | < 100 | – | –
